One molecule from PMC5738443, “Peptide aptamer-modified single-walled carbon nanotube-based transistors for high-performance biosensors” (Scientific Reports, 2017) can be followed below.

Residues, ends and D or L forms follow the SMILES beside them.

For assay [1], the target named is T1, Cathepsin E (CatE) (Homo sapiens, UniProt P14091).
T1 construct: purchased BioVision, Inc. (CA, USA)
T1 sequence (P14091 54-396): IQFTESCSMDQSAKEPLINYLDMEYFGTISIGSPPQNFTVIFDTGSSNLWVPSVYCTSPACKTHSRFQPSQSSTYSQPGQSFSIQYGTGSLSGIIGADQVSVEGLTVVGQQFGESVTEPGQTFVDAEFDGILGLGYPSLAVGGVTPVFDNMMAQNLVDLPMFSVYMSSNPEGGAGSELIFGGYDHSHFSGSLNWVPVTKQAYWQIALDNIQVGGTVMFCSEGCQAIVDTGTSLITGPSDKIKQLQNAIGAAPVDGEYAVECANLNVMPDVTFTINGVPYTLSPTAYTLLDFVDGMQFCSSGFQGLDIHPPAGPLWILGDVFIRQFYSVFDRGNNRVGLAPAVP
Kind of assay: SPR analysis (Biacore X100) of peptide aptamer binding to Cathepsin E. The following applies: Biacore X100, CM5 chip, aptamer immobilized via C-terminal biotin-streptavidin, 1000 RU; single-cycle, CatE 858.37-1.37 ng/mL; steady-state affinity; read-out: dissociation constant (Kd). An excerpt: CatE is composed of an in vitro-selected peptide aptamer (24 amino acids comprising two peptide blocks of 12- and 8-amino acids paired by a 4-amino acid linker) and a short alpha-strand peptide scaffold (7-amino acids). A Biacore X100 instrument was used to characterize the binding features of the peptide aptamer to CatE. A free N-terminal end of the peptide aptamer is necessary for its correct folding as a basis for the formation of the binding complex with the target. Therefore, the C-terminal end of the peptide aptamer with biotin-streptavidin chemistry was immobilized onto a CM5 sensor chip, and then CatE was injected as the analyte across this surface for interaction with the peptide aptamer. […] The dissociation constant (Kd) for the CatE was calculated as 0.954 ± 0.067 nM.
Figure 3 Peptide aptamer characterization. […] The data for the steady-state affinity binding plot were calculated from the end of the association phases against the analyte concentration. […]
A novel peptide aptamer that specifically recognizes CatE was engineered via systemic in vitro evolution. […] A steady-state affinity binding plot was calculated from the end of the association phases against the analyte concentration.

The target in assay [2] is T1, Cathepsin E (CatE). Kind of assay: CatE detection in PBS with peptide aptamer-modified liquid-gated SWCNT FET. It is filed as binding. The following applies: aptamer on SWCNT FET via PBASE; CatE 0.1 to 1 ng/mL in 1× PBS pH 10, 10 min, 25 °C; measured in 0.0005× PBS pH 4, -0.6 V; read-out: Kd (Langmuir isotherm fit of FET response). As for the experimental part:
The peptide aptamer was immobilized onto the SWCNT channel via the PBASE linker prior to the capture of CatE. Next, the sensor was exposed to 0.0005× PBS pH 4 for electrical measurements. […] The transfer curve of the SWCNT FET initially shifted toward the negative bias direction after the immobilization of the peptide aptamer. With increasing CatE concentrations from 0.1 to 0.6 ng/mL, the curve further shifted toward the same direction. This phenomenon is attributed to the positively charged CatE molecules at PBS pH 4 (the isoelectric point of CatE is 4.69) inducing the gradual reduction of hole carriers in the SWCNT channel via a field effect. At concentrations greater than this concentration, the shift of the transfer curve is no longer observed because all peptide aptamer probe molecules are occupied by CatE molecules. The relative decrease in the “on” current (∆I/∆Imax), where ∆Imax represents the decrease in “on” current at a saturation level due to the interaction between CatE and peptide aptamer-modified SWCNT FETs, at a top liquid-gated voltage of −0.6 V was plotted as a function of CatE concentration, as shown in Fig. 5b. […]
We measured the transfer characteristics of the fabricated sensor using a top liquid-gated scheme in 0.0005× PBS pH 4. […]

On to `CC[C@H](C)[C@H](NC(=O)CNC(=O)CNC(=O)[C@H](CS)NC(=O)[C@@H](N)CO)C(=O)N[C@H](C(=O)N[C@H](C(=O)N[C@H](C(=O)N[C@@H](CO)C(=O)N[C@@H](CS)C(=O)N[C@H](C(=O)N[C@@H](C)C(=O)N[C@H](C(=O)N[C@H](C(=O)N[C@@H](CO)C(=O)N[C@@H](CC(C)C)C(=O)N[C@H](C(=O)N1CCC[C@H]1C(=O)NCC(=O)N[C@@H](CCCNC(=N)N)C(=O)N[C@H](C(=O)NCC(=O)N[C@@H](CS)C(=O)N[C@H](C(=O)N[C@@H](CCCNC(=N)N)C(=O)N[C@@H](C)C(=O)N[C@@H](CCCCN)C(=O)N[C@@H](C)C(=O)N[C@@H](C)C(=O)N[C@@H](C)C(=O)N[C@@H](CCCCN)C(=O)O)[C@@H](C)CC)[C@@H](C)CC)[C@@H](C)CC)[C@@H](C)CC)C(C)C)[C@@H](C)CC)[C@@H](C)CC)[C@@H](C)CC)[C@@H](C)CC` [peptide aptamer] (H-SCGGIIIISCIAVISLIPGRIGCIRAKAAAK-OH), for which the equilibrium dissociation constant (Kd) stood at 954 pM on Cathepsin E (CatE) [1] and 2.77 pM at Cathepsin E (CatE) [2].
